In US6319929A, “Suksdorfin analogs, compositions thereof, and methods for making and using thereof” (priority 1998, dated 2001):
“Also recorded” adds a separate entry of the source. Read-outs that look alike come from different tables or passages of the source.

Assays:
[1] = system: HIV-1 replication in H9 cells; assay: Combination study of suksdorfin with AZT, ddI and ddC: HIV-1 replication in acutely infected H9 cells; type: cell-based, HIV-1 (IIIB)
Description: HIV Growth Inhibition Assay: The T cell line, H9, and the promonocytic cell line, U937, were maintained separately in continuous culture with complete medium (RPMI 1640 and […] fetal calf serum (FCS) at 5% CO2 and 37° C. Cell lines were used in experiments only when in log phase of growth; whereas, uninfected peripheral blood mononuclear cells (PBMCs) were first stimulated with PHA (1 μg/ml) for 3 days. All cell targets were incubated with HIV-1 (IIIB isolate, TCID50 10 ^4 IU/mi, at a multiplicity of infection of 0.1-0.01 IU/cell) for 1 hour at 37° C. and 5% CO2. The cell lines and PBMCs were washed thoroughly to remove unabsorbed virions and resuspended at 4×10^5 cells/ml in complete medium or complete medium with 10% v/v interleukin […] IL-2, respectively. Aliquots ( ml) were placed in wells of 24-well culture plates containing an equal volume of test compound (diluted in the appropriate culture medium). After incubation for 4 days at 37° C., cell density of uninfected cultures was determined by counting cells in a Coulter counter to assess toxicity of the test compound. A p24 antigen ELISA assay was used to determine the level of virus released in the medium of the HIV-infected cultures. The p24 antigen assay uses a HIV-1 anti-p24 specific monoclonal antibody as the capture antibody coated-on 96-well plates. Following a sample incubation period, rabbit serum containing antibodies for HIV-1 p24 is used to tag any p24 "captured" onto the microtiter well surface. […] The cut-off for the p24 ELISA assay is 12. pg/ml. P24 in the culture medium was quantitated against a standard curve containing known amounts of p24. […] Both the EC50 and IC50 values were calculated by plotting drug concentration versus percent inhibition, and then identifying a 50% inhibition value from the graph.
Combination Study: The experimental design is identical to the growth inhibition assay except that various concentrations of AZT, ddI or ddC were also added to cultures of acutely HIV-1 infected H9 cells that either have or have no received different concentrations of suksdorfin. The concentrations of AZT, ddI and ddC were 5 ten-fold dilutions starting at 1 μg/ml. [drawing 104] [drawing 105]

[2] = system: HIV-1 replication in fresh monocytes; assay: HIV-1 infection of fresh monocytes obtained by adherence (p24); type: cell-based; conditions: for inhibition at 0.032 µg/mL / inhibition at 0.16 µg/mL / inhibition at 0.8 µg/mL / inhibition at 4 µg/mL / inhibition at 20 µg/mL: Human immunodeficiency virus 1, Monocyte, read-out: % suppression
Text: Results (Table 12) from adding Suksdorfin to fresh monocytes infected with HIV-1.
The monocytes which were used for this experiment were obtained by adherence and not by elutriation; therefore, this cell population is not as pure as what was used for the 16 monocyte data above.

[3] = system: HIV-1 replication in fresh elutriated monocytes; assay: HIV-1 infection of primary elutriated monocytes (p24 antigen); type: cell-based
Text: In order to determine if compound 16 suppressive activity was limited to only fresh T cells infected with HIV-1, elutriated monocytes were infected with HIV-1 and then cultured with various concentrations of compound 16 or AZT. […] This illustrates that the effect of the drμg is not only limited to T cells but also can effect virally infected monocytes.

Cc1cn([C@H]2C[C@H](N=[N+]=[N-])[C@@H](CO)O2)c(=O)[nH]c1=O [AZT, azidothymidine, reference compound]
EC50 ([1]; Human immunodeficiency virus 1, H9): 0.04 µg/mL | IC50 ([1]; Human immunodeficiency virus 1, H9, read-out: IC50 (μM)^b): 0.04 µg/mL | Therapeutic Index ([1]; Table 5, combinations with 4 μg/ml suksdorfin): > 25 | Therapeutic Index ([1]; Table 16, combinations with 4 μg/ml suksdorfin): > 25 | decrease of EC50 in presence of suksdorfin ([1]; with 4 μg/ml suksdorfin, H9): 400 fold | increase of TI value in presence of suksdorfin ([1]; with 4 μg/ml suksdorfin, H9): 400 fold | p24 ([2]; Day 6, 0.008 μg/ml): 42,004 pg/ml | p24 ([2]; Day 6, 0.04 μg/ml): 23,234 pg/ml | p24 ([2]; Day 6, 0.2 μg/ml): 34,360 pg/ml | p24 ([2]; Day 6, 1 μg/ml): 8,705 pg/ml | p24 ([2]; Day 6, 5 μg/ml): 13,542 pg/ml | p24 ([2]; Day 12, 0.008 μg/ml): 70,380 pg/ml | p24 ([2]; Day 12, 0.04 μg/ml): 17,144 pg/ml | p24 ([2]; Day 12, 0.2 μg/ml): 32,778 pg/ml | p24 ([2]; Day 12, 1 μg/ml): 5,354 pg/ml | p24 ([2]; Day 12, 5 μg/ml): 10,170 pg/ml | p24 ([2]; Day 18, 0.008 μg/ml): 75,428 pg/ml | p24 ([2]; Day 18, 0.04 μg/ml): 22,993 pg/ml | p24 ([2]; Day 18, 0.2 μg/ml): 31,759 pg/ml | p24 ([2]; Day 18, 1 μg/ml): 6,830 pg/ml | p24 ([2]; Day 18, 5 μg/ml): 12,330 pg/ml | p24 antigen ([3]; Day 17, 0.0001 μg/ml): 83 pg/mL | p24 antigen ([3]; Day 17, 0.001 μg/ml): 100 pg/mL | p24 antigen ([3]; Day 17, 0.01 μg/ml): 7 pg/mL | p24 antigen ([3]; Day 17, 0.1 μg/ml): 5 pg/mL | p24 antigen ([3]; Day 17, 1 μg/ml): 2 pg/mL | p24 antigen ([3]; Day 17, 10 μg/ml): 0.1 pg/mL | p24 antigen ([3]; Day 28, 0.0001 μg/ml): 0 pg/mL | p24 antigen ([3]; Day 28, 0.001 μg/ml): 0 pg/mL | p24 antigen ([3]; Day 28, 0.01 μg/ml): 0 pg/mL | p24 antigen ([3]; Day 28, 0.1 μg/ml): 0 pg/mL | p24 antigen ([3]; Day 28, 1 μg/ml): 0 pg/mL | p24 antigen ([3]; Day 28, 10 μg/ml): 0 pg/mL

CC(=O)O[C@@H]1[C@H](OC(=O)CC(C)C)c2c(ccc3ccc(=O)oc23)OC1(C)C [Suksdorfin, suksdorfin]
synergy with AZT, ddI and ddC ([1]; H9): act synergistically with AZT, ddI and ddC | synergy with AZT, ddI and ddC ([1]; H9, listed as 1): potentiate the anti-HIV effects of three nucleosides; also recorded: synergistic effect against HIV replication | EC50 ([1]; Human immunodeficiency virus 1, H9, Table 5, combinations with 4 μg/ml suksdorfin, read-out: EC50): 2.8 µg/mL | IC50 ([1]; Human immunodeficiency virus 1, H9, Table 16, concentration which inhibits viral replication by 50%, combinations with 4 μg/ml suksdorfin, read-out: IC50 (μM)^b): 2.8 µg/mL | EC50 ([1]; Human immunodeficiency virus 1, H9, later value, read-out: EC50 (value after increase)): 1.5 to 2.8 µg/mL | inhibition at 4 µg/mL ([1]; Human immunodeficiency virus 1, 4 μg/ml suksdorfin, H9): 64% | p24 ([2]; Day 6, 0.032 μg/ml): 64,614 pg/ml | p24 ([2]; Day 6, 0.16 μg/ml): 70,195 pg/ml | p24 ([2]; Day 6, 0.8 μg/ml): 53,043 pg/ml | p24 ([2]; Day 6, 4 μg/ml): 48,748 pg/ml | p24 ([2]; Day 6, 20 μg/ml): 16,712 pg/ml | p24 ([2]; Day 12, 0.032 μg/ml): 173,998 pg/ml | p24 ([2]; Day 12, 0.16 μg/ml): 203,633 pg/ml | p24 ([2]; Day 12, 0.8 μg/ml): 163,656 pg/ml | p24 ([2]; Day 12, 4 μg/ml): 89,467 pg/ml | p24 ([2]; Day 12, 20 μg/ml): 25,567 pg/ml | p24 ([2]; Day 18, 0.032 μg/ml): 105,882 pg/ml | p24 ([2]; Day 18, 0.16 μg/ml): 125,440 pg/ml | p24 ([2]; Day 18, 0.8 μg/ml): 130,970 pg/ml | p24 ([2]; Day 18, 4 μg/ml): 103,834 pg/ml | p24 ([2]; Day 18, 20 μg/ml): 23,506 pg/ml | inhibition at 0.032 µg/mL ([2]; 144 h, Day 6, 0.032 μg/ml): 0% | inhibition at 0.16 µg/mL ([2]; 144 h, Day 6, 0.16 μg/ml): 0% | inhibition at 0.8 µg/mL ([2]; 144 h, Day 6, 0.8 μg/ml): 0% | inhibition at 4 µg/mL ([2]; 144 h, Day 6, 4 μg/ml): 18% | inhibition at 20 µg/mL ([2]; 144 h, Day 6, 20 μg/ml): 72% | inhibition at 0.032 µg/mL ([2]; 288 h, Day 12, 0.032 μg/ml): 0% | inhibition at 0.16 µg/mL ([2]; 288 h, Day 12, 0.16 μg/ml): 0% | inhibition at 0.8 µg/mL ([2]; 288 h, Day 12, 0.8 μg/ml): 40% | inhibition at 4 µg/mL ([2]; 288 h, Day 12, 4 μg/ml): 67% | inhibition at 20 µg/mL ([2]; 288 h, Day 12, 20 μg/ml): 91% | inhibition at 0.032 µg/mL ([2]; 432 h, Day 18, 0.032 μg/ml): 0% | inhibition at 0.16 µg/mL ([2]; 432 h, Day 18, 0.16 μg/ml): 0% | inhibition at 0.8 µg/mL ([2]; 432 h, Day 18, 0.8 μg/ml): 0% | inhibition at 4 µg/mL ([2]; 432 h, Day 18, 4 μg/ml): 0% | inhibition at 20 µg/mL ([2]; 432 h, Day 18, 20 μg/ml): 78% | suppression of HIV-1 replication in fresh monocytes (in words) ([2]; suksdorfin at 20 and 4 μg/ml, AZT positive control): did suppress HIV-1 replication in fresh monocytes

CC1(C)Oc2ccc3ccc(=O)oc3c2[C@@H](OC(=O)[C@@]23CC[C@@](C)(C(=O)O2)C3(C)C)[C@H]1OC(=O)[C@@]12CC[C@@](C)(C(=O)O1)C2(C)C [Compound 16, 3',4'-Di-O-(-)-Camphanoyl-(+)-cis-Khellactone]
suppression of HIV-1 replication in fresh elutriated monocytes (in words) [3]: able to suppress HIV-1 replication in fresh elutriated monocytes | p24 antigen ([3]; Day 17, 0.0000102 μg/ml): 49 pg/mL | p24 antigen ([3]; Day 17, 0.0000512 μg/ml): 52 pg/mL | p24 antigen ([3]; Day 17, 0.000256 μg/ml): 70 pg/mL | p24 antigen ([3]; Day 17, 0.00128 μg/ml): 306 pg/mL | p24 antigen ([3]; Day 17, 0.0064 μg/ml): 66 pg/mL | p24 antigen ([3]; Day 17, 0.032 μg/ml): 94 pg/mL | p24 antigen ([3]; Day 17, 0.16 μg/ml): 7 pg/mL | p24 antigen ([3]; Day 17, 0.8 μg/ml): 6 pg/mL | p24 antigen ([3]; Day 17, 4 μg/ml): 6 pg/mL | p24 antigen ([3]; Day 17, 20 μg/ml): 5 pg/mL | p24 antigen ([3]; Day 28, 0.0000102 μg/ml): 1536 pg/mL | p24 antigen ([3]; Day 28, 0.0000512 μg/ml): 824 pg/mL | p24 antigen ([3]; Day 28, 0.000256 μg/ml): 760 pg/mL | p24 antigen ([3]; Day 28, 0.00128 μg/ml): 208 pg/mL | p24 antigen ([3]; Day 28, 0.0064 μg/ml): 584 pg/mL | p24 antigen ([3]; Day 28, 0.032 μg/ml): 0 pg/mL | p24 antigen ([3]; Day 28, 0.16 μg/ml): 0 pg/mL | p24 antigen ([3]; Day 28, 0.8 μg/ml): 0 pg/mL | p24 antigen ([3]; Day 28, 4 μg/ml): 0 pg/mL | p24 antigen ([3]; Day 28, 20 μg/ml): 0 pg/mL
